# Measurements reported in patent publication US20150267174A1, “REPROGRAMMING PEPTIDE AND USE THEREOF” (priority 2012, published 2015).
# Square brackets hold non-standard residues; d marks the D form. Cysamide = C-terminal cysteamide
# What was measured:
# Type in all cases: cell-based
# [1] = tested on: Human adult fibroblast strain TIG113; test: Spheroid formation after reverse transfection of peptide into fibroblasts; details: for spheroid formation ability (in words): reverse transfection, TIG113; for degree of spheroid formation: number of ES cell colony-like spheroids, peptide 30 μg/well solid-phased on 12 well plate, 2×10^4 cells seeded, measured 7-10 days later
# Description: Human adult fibroblast strain TIG113 was cultured in a medium mainly containing 10% fetal bovine serum-containing EMEM under humidified conditions at 37° C. and 5% CO2 until it reached 1×10^7 cells. A plate for reverse transfection was prepared by applying each peptide shown in Table 1 to each well of a 12 well plate at a concentration of 30 μg/well, and forming a solid phase by air-drying. Grown TIG113 was washed with CMF-PBS, and incubated in 0.25% trypsin solution at 37° C. for 10-15 min to dissociate the cells. Centrifugation and washing with PBS were repeated twice and the cells were suspended in iPS medium (manufactured by ReproCELL Incorporated). Using the cell suspension, human fibroblast was seeded at 2×10^4 cells on a plate for reverse transfection. As a reverse transfection medium, an iPS medium containing 10% fetal bovine serum and not containing bFGF was used. The number of ES colony-like spheroids formed was measured 7-10 days later, and the spheroid formation degree was evaluated (Table 1). In an experiment using the peptides of H11, H16, and H29, the ratio of the cells forming spheroid was calculated.
# [2] = tested on: Human adult fibroblast strain TIG113; test: CD105/CD146/CD31 antibody staining of spheroid cells
# Description: The pluripotent spheroid cell obtained in Example 1 by introducing a reprogramming peptide into a differentiated cell was examined for undifferentiation, and expressions of nerve marker and the like.
# Using the H11 peptide shown in Table 1, the cells were made to form spheroid according to the method shown in Example 1 and incubated using 1% H2O2-containing methanol at room temperature for 5 min, and immobilized.
# Using the antibody described in Table 3, cells were stained according to a package insert. As the secondary antibody, HRP-labeled goat anti-mouse IgG antibody (manufactured by Promega KK, Goat Anti-Mouse IgG (H+L), HRP Conjugate) was used.
# [3] = tested on: Human adult fibroblast strain TIG113; test: Marker expression (immunostaining, alkaline phosphatase staining) of spheroid cells
# Description: The pluripotent spheroid cell obtained in Example 1, by introducing a reprogramming peptide into differentiated cell, was examined for undifferentiation, expression of nerve marker and the like.
# Using the H11 peptide shown in Table 1, the cells were made to form spheroid according to the method shown in Example 1, and incubated in 1% H2O2 containingmethanol at room temperature for 5 min to immobilize the cells. The cells were washed five times with PBS, and blocked with PBS containing 5% FBS/0.05% gelatin/3% skim milk/1% BSA (hereinafter Block Ace) at room temperature for 1-2 hr. Furthermore, the cells were reacted at room temperature for 2 hr with the primary antibody shown in Table 2 and appropriately diluted with Block Ace. The cells were washed five times with PBS, and the HPR-labeled secondary antibody was appropriately diluted with Block Ace and reacted at room temperature for 1 hr. Lastly, the cells were washed five times with PBS, and the antigen was visualized according to the protocol of Peroxidase Stain DAB Kit &enhancer (Nacalai Tesque).
# For alkaline phosphatase staining, the cells immobilized by the aforementioned method were incubated at room temperature for 30 min using BCIP/NBT Color Development Substrate (Promega). The reaction was quenched by washing five times with PBS.
# [4] = tested on: human fibroblast (manufactured by KURABO INDUSTRIES LTD.); test: Spheroid formation and marker expression using human adult fibroblast
# Source text: Using a method similar to that of Example 1, H11 peptide was introduced into human fibroblast (manufactured by KURABO INDUSTRIES LTD.).
# The prepared spheroid was subjected to expression analysis of pluripotency marker and differentiation marker according to the method of Example 2. As a result, it was positive to pluripotency markers of alkaline phosphatase, SSEA-3, TRA-1-61, Oct3/4, Sox2, and Nanog. Furthermore, the expression of neural stem cell marker nestin, nerve marker neurofilament 160, βIII tubulin, MAP2, and GFAP was confirmed by continuous culture. Furthermore, the expression of insulin producing cell marker proinsulin, and C-peptide was also confirmed.
# A549 = test: Spheroid formation and marker staining in various cells
# Source text: (§1) By a method similar to that of Example 1, H11 peptide was introduced into BHK21, A549, H293 cell, mouse feeder cell (COSMO BIO co., ltd.: RCHEFC003), bovine vascular endothelial cell (TOYOBO CO., LTD.: CAB300K05), and swine vascular endothelial cell (TOYOBO CO., LTD.: CAP300K05).
# BHK21 = test: as above
# Source text: as §1
# [5] = tested on: bovine vascular endothelial cell; test: as above
# Source text: as §1
# [6] = tested on: swine vascular endothelial cell; test: as above
# Source text: as §1
# mouse feeder cell = test: as above
# Source text: as §1
# H293 cell = test: as above
# Source text: as §1
substance,measurement,setting,value
Ac-GALFLGFLGAAGSTMGA-Cysamide [H13],spheroid formation ability (in words),[1],no spheroid formation ability
Ac-GALFLGFLGAAGSTMGA/WSQ/KKRTLRKNDRKKR-Cysamide (Ac-GALFLGFLGAAGSTMGAWSQKKRTLRKNDRKKR-Cysamide) [H36],degree of spheroid formation,[1],+++ (+++ about 50-100)
Ac-GALFLGFLGAAGSTMGA/WSQ/RSRKYTSWYVALKR-Cysamide (Ac-GALFLGFLGAAGSTMGAWSQRSRKYTSWYVALKR-Cysamide) [H37],degree of spheroid formation,[1],+++ (+++ about 50-100)
Ac-GALFLGFLGAAGSTMGAWSQGKKRSKA-Cysamide [H29],degree of spheroid formation,[1],+++ (+++ about 50-100)
same,spheroid formation ability (in words),[1],has spheroid formation ability
Ac-GALFLGFLGAAGSTMGAWSQPKKKRKV-Cysamide [H11],degree of spheroid formation,[1],+++ (+++ about 50-100)
same,mesenchymal stem cell marker CD105,[2],positive
same,pericyte marker CD146,[2],positive
same,vascular endothelial cell marker CD31,[2],negative
same,"expression of pluripotent markers alkaline phosphatase, Oct3/4, Sox2, Nanog, SSEA-3, Tra-1-81",[3]; spheroid cells from TIG113,express
same,expression of proinsulin and C-peptide (insulin producing cell markers),[3]; spheroid cells from TIG113,confirmed
same,"expression of nestin, neurofilament 160, βIII tubulin, MAP2, GFAP",[3]; when the culture period becomes long,confirmed
same,expression of alpha-fetoprotein and albumin,[4],confirmed
same,expression of proinsulin and C-peptide,[4],confirmed
same,oil red O staining,[4],differentiation into adipose tissue was found
same,"expression of nestin, neurofilament 160, βIII tubulin, MAP2, GFAP",[4]; continuous culture,confirmed
same,spheroid formation,[4]; human fibroblast (KURABO),finally formed spheroid
same,"pluripotency markers alkaline phosphatase, SSEA-3, TRA-1-61, Oct3/4, Sox2, Nanog",[4]; prepared spheroid,positive
same,"alkaline phosphatase, SSEA-3 staining",A549,positive
same,spheroid formation,A549,formed spheroids
same,"alkaline phosphatase, SSEA-3 staining",BHK21,positive
same,spheroid formation,BHK21,formed spheroids
same,"alkaline phosphatase, SSEA-3 staining",[5],positive
same,spheroid formation,[5],formed spheroids
same,"alkaline phosphatase, SSEA-3 staining",[6],positive
same,spheroid formation,[6],formed spheroids
same,"alkaline phosphatase, SSEA-3 staining",mouse feeder cell,positive
same,spheroid formation,mouse feeder cell,formed spheroids
same,"alkaline phosphatase, SSEA-3 staining",H293 cell,positive
same,spheroid formation,H293 cell,formed spheroids
Ac-GALFLGFLGAAGSTMGAWSQPKSKRKV-Cysamide [H6],degree of spheroid formation,[1],+ (+ about −10)
Ac-GALFLGFLGAAGSTMGAmSQPKSKRKV-Cysamide (Ac-GALFLGFLGAAGSTMGA[dM]SQPKSKRKV-Cysamide) [H10],degree of spheroid formation,[1],+ (+ about −10)
"Ac-PKKKRKV-Cysamide [H18, SV40 Large T antigen NLS]",spheroid formation ability (in words),[1],Spheroid is not formed
Ac-RQIKIWFQNRRMKWKKWSQGKKRSKA-Cysamide [H31],degree of spheroid formation,[1],+ (+ about −10)
GALFLGFLGAAGSTMGAWSQPKSKRKV (Reprogramming peptide) [H1],degree of spheroid formation,[1],++ (++ about 10-50)
GALFLGFLGAAGSTMGAmSQPKSKRKV (GALFLGFLGAAGSTMGAMSQPKSKRKV; not fully specified; D-Met; Reprogramming peptide) [H5],degree of spheroid formation,[1],+ (+ about −10)
